From patent US7629340B2, “N-(6-membered aromatic ring)-amido anti-viral compounds” (SmithKline Beecham Corporation, priority 2005, dated 2009)

assay: Replicon Assay (luciferase, ET cell line); assay type: cell-based, HCV; settings: Hepatitis C virus; % inhibition of replication relative to no compound control, test concentration of 10 μM; ET cells, luciferase read 48-72 hours; read-out: % inhib at 10 uM
Description: A cell line, ET (Huh-lucubineo-ET) was used for screening of compounds of the present invention for HCV RNA dependent RNA polymerase. The ET cell line was stably transfected with RNA transcripts harboring a I389luc-ubi-neo/NS3-3′/ET; replicon with firefly luciferase-ubiquitin-neomycin phosphotransferase fusion protein and EMCV-IRES driven NS3-5B polyprotein containing the cell culture adaptive mutations (E1202G; T1280I; K1846T) (Krieger at al, 2001 and unpublished). The ET cells were grown in DMEM, supplemented with 10% fetal calf serum, 2 mM Glutamine, Penicillin (100 IU/mL)/Stretomycin (100 μg/mL), 1× nonessential amino acids, and 250 μg/mL G418 (“Geneticin”). They were all available through Life Technologies (Bethesda, Md.). The cells were plated at 0.5−1.0×10^4 cells/well in the 96 well plates and incubated for 24 hrs before adding nucleoside analogs. […] Luciferase activity were measured 48-72 hours later by adding a lysis buffer and the substrate (Catalog number Glo-lysis buffer E2661 and Bright-Glo luciferase system E2620 Promega, Madison, Wis.). Cells should not be too confluent during the assay. Percent inhibition of replication was plotted relative to no compound control. Under the same condition, cytotoxicity of the compounds was determined using cell proliferation reagent, WST-1 (Roche, Germany). The compounds showing antiviral activities, but no significant cytotoxicities were chosen to determine IC50 and TC50. For these determinations, 10 concentration of each compound were used. Concentrations for test compounds typically span a range of 500 fold. IC50 and TC50 values were calculated by fitting % inhibition at each concentration (I) to the following equation: % inhibition=100%/[1+10^(log IC50−log(I))*b] where b is Hill's coefficient.

SMILES | inhibition at 10 µM
NC(=O)Nc1cccc(-c2cccc(NC(=O)[C@@H]3CCCN3C(=O)OCc3ccccc3)c2)c1 [Compound 6093, 2-(3′-Ureido-biphenyl-3-ylcarbamoyl)-pyrrolidine-1-carboxylic acid benzyl ester] | 98.1%
O=C(O)/C=C/c1ccc(-c2cccc(NC(=O)[C@@H]3CCCN3C(=O)OCc3ccccc3)c2)cc1 [Compound 6055, 2-[4′-(2-Carboxy-vinyl)-biphenyl-3-ylcarbamoyl]-pyrrolidine-1-carboxylic acid benzyl ester] | 40.9%
Nc1ccc(-c2cccc(NC(=O)[C@@H]3CCCN3C(=O)OCc3ccccc3)c2)cc1 [Compound 6086, 2-(4′-Amino-biphenyl-3-ylcarbamoyl)-pyrrolidine-1-carboxylic acid benzyl ester] | 89.9%
CN(C)c1ccc(-c2cccc(NC(=O)[C@@H]3CCCN3C(=O)OCc3ccccc3)c2)cc1 [Compound 6045, 2-(4′-Dimethylamino-biphenyl-3-ylcarbamoyl)-pyrrolidine-1-carboxylic acid benzyl ester] | 15.7%
COc1ccc(-c2cccc(NC(=O)[C@@H]3CCCN3C(=O)OCc3ccccc3)c2)cc1OC [Compound 6029, 2-(3′,4′-Dimethoxybiphenyl-3-yl-carbamoyl)-pyrrolidine-1-carboxylic acid benzyl ester] | 3.08%
O=C(Nc1cccc(-c2cccs2)c1)[C@@H]1CCCN1C(=O)OCc1ccccc1 [Compound 6022, 2-(3-Thiophen-2-yl-phenylcarbamoyl)-pyrrolidine-1-carboxylic acid benzyl ester] | 87.3%
O=C(NCc1ccc(-c2cccc(NC(=O)[C@@H]3CCCN3C(=O)OCc3ccccc3)c2)cc1)C1CC1 [Compound 6308, 2-{4′-[(Cyclopropanecarbonyl-amino)-methyl]-biphenyl-3-ylcarbamoyl}-pyrrolidine-1-carboxylic acid benzyl ester] | 56.2%
Cc1cccc(Oc2cc(NC(=O)[C@@H]3CCCN3C(=O)OCc3ccccc3)cc([N+](=O)[O-])c2)c1 (stereo in doubt) [Compound 6039, 2-(3-Nitro-5-m-tolyloxy-phenylcarbamoyl)-pyrrolidine-1-carboxylic acid benzyl ester] | 33.8%
O=C(Nc1ccc(-c2ccccc2)cc1)[C@@H]1CCCN1C(=O)OCc1ccccc1 [Compound 6035, 2-(Biphenyl-4-ylcarbamoyl)-pyrrolidine-1-carboxylic acid benzyl ester] | 42.5%
CC(=O)c1ccc(-c2cccc(NC(=O)[C@@H]3CCCN3C(=O)OCc3ccccc3)c2)s1 [Compound 6048, 2-[3-(5-Acetyl-thiophen-2-yl)-phenylcarbamoyl]-pyrrolidine-1-carboxylic acid benzyl ester] | 36.9%
CC1=NN(c2ccccc2)C(=O)/C1=C\c1ccc(NC(=O)[C@@H]2CCCN2C(=O)OCc2ccccc2)cc1 (stereo in doubt) [Compound 6005, 2-[4-(3-Methyl-5-oxo-1-phenyl-1,5-dihydro-pyrazol-4-ylidenemethyl)-phenylcarbamoyl]-pyrrolidine-1-carboxylic acid benzyl ester] | 3.63%
O=C(Nc1cccc(-c2cccc3[nH]ccc23)c1)[C@@H]1CCCN1C(=O)OCc1ccccc1 [Compound 6082, 2-[3-(1H-Indol-4-yl)-phenylcarbamoyl]-pyrrolidine-1-carboxylic acid benzyl ester] | 97.4%
COc1ccc(-c2ccc(NC(=O)[C@@H]3CCCN3C(=O)OCc3ccccc3)cc2)c(OC)c1 [Compound 6001, 2-(2′,4′-Dimethoxy-biphenyl-4-ylcarbamoyl)-pyrrolidine-1-carboxylic acid benzyl ester] | 87.8%
CN(C)c1cccc(-c2cccc(NC(=O)[C@@H]3CCCN3C(=O)OCc3ccccc3)c2)c1 [Compound 6096, 2-(3′-Dimethylamino-biphenyl-3-ylcarbamoyl)-pyrrolidine-1-carboxylic acid benzyl ester] | 53.3%
O=C(Nc1cccc(-c2ccc3[nH]ccc3c2)c1)[C@@H]1CCCN1C(=O)OCc1ccccc1 [Compound 6010, 2-[3-(1H-Indol-5-yl)-phenylcarbamoyl]-pyrrolidine-1-carboxylic acid benzyl ester] | 98.6%
CC(=O)Nc1cccc(-c2cccc(NC(=O)[C@@H]3CCCN3C(=O)OCc3ccccc3)c2)c1 [Compound 6057, 2-(3′-Acetylamino-biphenyl-3-ylcarbamoyl)-pyrrolidine-1-carboxylic acid benzyl ester] | 61.7%
